Assay results taken from ChEMBL document CHEMBL1949521, “Discovery of CC-930, an orally active anti-fibrotic JNK inhibitor” (Bioorg Med Chem Lett, 2012).

Legend:
[1] = target: Mitogen-activated protein kinase 14 (Homo sapiens, UniProt Q16539); assay: Inhibition of p38alpha using myelin basic protein as substrate preincubated for 15 mins prior ATP addition measured after 60 mins by scintillation counting
[2] = target: Mitogen-activated protein kinase 8 (Homo sapiens, UniProt P45983); assay: Inhibition of hexa-His-tagged JNK1 expressed in baculoviral system using GST-tagged c-Jun as substrate preincubated for 15 mins prior ATP addition measured after 60 mins by scintillation counting
[3] = target: c-Jun N-terminal kinase, JNK (Homo sapiens, UniProt P45983+P53779+P45984); assay: Inhibition of JNK-mediated GST tagged c-Jun phosphorylation in human Jurkat T cells compound treated for 30 mins prior anisomycin stimulation measured after 40 mins by fluorescence spectrophotometry; format: cell-based

Chain of Mitogen-activated protein kinase 8 (P45983 whole entry): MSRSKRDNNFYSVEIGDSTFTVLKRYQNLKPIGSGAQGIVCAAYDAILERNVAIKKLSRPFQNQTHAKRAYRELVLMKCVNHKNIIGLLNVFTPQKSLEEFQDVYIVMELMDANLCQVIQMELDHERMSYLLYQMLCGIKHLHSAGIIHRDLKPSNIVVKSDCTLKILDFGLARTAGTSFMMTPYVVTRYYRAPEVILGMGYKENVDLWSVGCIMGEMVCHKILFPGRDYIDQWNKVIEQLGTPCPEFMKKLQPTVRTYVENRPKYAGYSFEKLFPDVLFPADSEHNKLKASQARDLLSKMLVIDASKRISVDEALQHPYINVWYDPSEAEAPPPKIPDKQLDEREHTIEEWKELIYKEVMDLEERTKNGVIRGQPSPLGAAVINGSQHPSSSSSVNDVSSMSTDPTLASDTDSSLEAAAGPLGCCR
Chain of Mitogen-activated protein kinase 14 (Q16539 whole entry): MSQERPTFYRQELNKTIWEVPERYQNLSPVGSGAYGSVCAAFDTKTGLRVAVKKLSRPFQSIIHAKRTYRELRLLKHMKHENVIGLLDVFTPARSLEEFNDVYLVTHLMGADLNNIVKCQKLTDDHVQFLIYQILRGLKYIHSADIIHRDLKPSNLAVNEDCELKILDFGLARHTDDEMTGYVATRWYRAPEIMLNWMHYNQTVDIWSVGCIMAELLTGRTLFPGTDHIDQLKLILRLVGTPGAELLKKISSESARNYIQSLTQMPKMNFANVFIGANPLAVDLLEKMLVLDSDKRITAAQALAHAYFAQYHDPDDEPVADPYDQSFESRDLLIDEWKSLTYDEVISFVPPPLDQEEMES

Row | Compound | IC50 [1] | IC50 [2] | IC50 [3]
1 | O[C@H]1CC[C@H](Nc2ncc3nc(Nc4c(F)cc(F)cc4F)n([C@@H]4CCOC4)c3n2)CC1 | > 3000 nM |  | 
2 | Fc1ccc(Nc2nc3cnc(C4CCOCC4)nc3n2C2CCCC2)c(F)c1 | 230 nM | 900 nM | 
3 | CC(C)(O)[C@H]1CC[C@@H](c2ncc3nc(Nc4ccc(F)cc4F)n(C4CCOCC4)c3n2)C1 | > 3000 nM | 1300 nM | 1700 nM
4 | CC(C)(O)[C@H]1CC[C@H](Nc2ncc3nc(Nc4ccc(F)cc4F)n(C4CCOCC4)c3n2)CC1 | 980 nM | 320 nM | 1700 nM
